Laboratory results: ChEMBL document CHEMBL3885861, “Open TG-GATES”

Species on record: Rattus norvegicus
Experiment: Open TG-GATES - Regimen: Daily Repeat
Type: toxicity, organism-based, Sprague-Dawley
Parameters: regimen Daily Repeat, gender Male, age 6 weeks
Conditions: in vivo, po, route gavage; for TP / gamma-GTP / ALP / ALT / AST / BUN / CRE / DBIL / GLC / IP / K / LDH / Na / PL / RALB / TBIL / TC / TG: tissue Plasma; for APTT / Bas / Eos / Fbg / Ht / Lym / MCH / MCHC / MCV / Mono / Neu / Plat / RBC / Ret / WBC: tissue Blood
[1] = 45 mg/kg, […], dose level Low, time 28 day
[2] = 150 mg/kg, 72 h, dose level Middle, time 3 day
[3] = 150 mg/kg, […], dose level Middle, time 7 day
[4] = 150 mg/kg, […], dose level Middle, time 14 day
[5] = 150 mg/kg, […], dose level Middle, time 28 day
[6] = 450 mg/kg, 72 h, dose level High, time 3 day
[7] = 450 mg/kg, […], dose level High, time 7 day
[8] = 450 mg/kg, […], dose level High, time 14 day
[9] = 450 mg/kg, […], dose level High, time 28 day

## CCCC(CCC)C(=O)O [VALPROIC ACID]
[1]
  TP: 5.9 g/dL
  gamma-GTP: 0.6 IU/L
[2]
  TERMINAL_BW: 227 g
  APTT: 19.8 s
  Bas: 0%
  Eos: 1%
  Fbg: 219.8 mg/dL
  Ht: 38.6%
  Lym: 78%
  MCH: 21.6 pg
  MCHC: 34.3%
  MCV: 62.9 fL
  Mono: 3.8%
  Neu: 17%
  Plat: 140.1 x10_4/uL
  RBC: 614.2 x10_4/ul
  Ret: 6.8%
  WBC: 106.9 x10_2/uL
  ALP: 920.6 IU/L
  ALT: 40 IU/L
  AST: 73.6 IU/L
  BUN: 16.2 mg/dL
  CRE: 0.4 mg/dL
  DBIL: 0.074 mg/dL
  GLC: 211.4 mg/dL
  IP: 7.9 mg/dL
  K: 3.8 meq/L
  LDH: 179.2 IU/L
  Na: 141.4 meq/L
  PL: 148.6 mg/dL
  RALB: 3.3 g/dL
  TBIL: 0.1 mg/dL
  TC: 76.8 mg/dL
  TG: 73 mg/dL
  TP: 5.4 g/dL
  gamma-GTP: 1.2 IU/L
[3]
  TERMINAL_BW: 255.5 g
  APTT: 19.5 s
  Bas: 0%
  Eos: 1.2%
  Fbg: 219.6 mg/dL
  Ht: 40.1%
  Lym: 81%
  MCH: 20.8 pg
  MCHC: 33.9%
  MCV: 61.3 fL
  Mono: 3.4%
  Plat: 129.5 x10_4/uL
  RBC: 655 x10_4/ul
  Ret: 5.7%
  WBC: 106 x10_2/uL
  ALP: 816 IU/L
  ALT: 29.8 IU/L
  AST: 59.2 IU/L
  BUN: 15.4 mg/dL
  CRE: 0.4 mg/dL
  DBIL: 0.078 mg/dL
  GLC: 220.6 mg/dL
  IP: 7.2 mg/dL
  K: 3.7 meq/L
  LDH: 194.4 IU/L
  Na: 140.6 meq/L
  RALB: 3.4 g/dL
  TBIL: 0.1 mg/dL
  TC: 69.4 mg/dL
  TG: 109.4 mg/dL
  TP: 5.6 g/dL
  gamma-GTP: 1.4 IU/L
[4]
  TERMINAL_BW: 311.1 g
  APTT: 18.7 s
  Bas: 0%
  Eos: 1%
  Fbg: 216.8 mg/dL
  Ht: 42.3%
  Lym: 83.2%
  MCH: 20.6 pg
  MCHC: 35%
  MCV: 58.9 fL
  Mono: 2.6%
  Neu: 13.2%
  Plat: 108.8 x10_4/uL
  RBC: 720 x10_4/ul
  Ret: 4%
  WBC: 93.8 x10_2/uL
  ALP: 877.8 IU/L
  ALT: 34.4 IU/L
  AST: 64.2 IU/L
  BUN: 16.6 mg/dL
  CRE: 0.4 mg/dL
  DBIL: 0.082 mg/dL
  GLC: 218.2 mg/dL
  IP: 7.9 mg/dL
  K: 3.8 meq/L
  LDH: 176.8 IU/L
  Na: 140.4 meq/L
  PL: 153.2 mg/dL
  RALB: 3.4 g/dL
  TBIL: 0.1 mg/dL
  TC: 69.4 mg/dL
  TG: 123 mg/dL
  TP: 5.8 g/dL
  gamma-GTP: 0.8 IU/L
[5]
  TERMINAL_BW: 400.1 g
  APTT: 19.7 s
  Bas: 0%
  Eos: 1.4%
  Fbg: 214.2 mg/dL
  Ht: 42.1%
  Lym: 83.2%
  MCH: 19 pg
  MCHC: 35.2%
  MCV: 53.9 fL
  Mono: 2.6%
  Neu: 12.4%
  Plat: 116.1 x10_4/uL
  RBC: 781.6 x10_4/ul
  Ret: 2.3%
  WBC: 89.2 x10_2/uL
  ALP: 729.4 IU/L
  ALT: 35 IU/L
  AST: 65 IU/L
  BUN: 17.6 mg/dL
  CRE: 0.4 mg/dL
  DBIL: 0.1 mg/dL
  GLC: 208.2 mg/dL
  IP: 6.7 mg/dL
  K: 3.9 meq/L
  LDH: 178.4 IU/L
  Na: 141 meq/L
  PL: 142.4 mg/dL
  RALB: 3.5 g/dL
  TBIL: 0.2 mg/dL
  TC: 66.6 mg/dL
  TG: 130.4 mg/dL
  TP: 6.1 g/dL
  gamma-GTP: 0.6 IU/L
[6]
  TERMINAL_BW: 225.2 g
  APTT: 19.4 s
  Bas: 0%
  Eos: 1%
  Fbg: 213.4 mg/dL
  Ht: 38.5%
  Lym: 79.2%
  MCH: 21.5 pg
  MCHC: 34.4%
  MCV: 62.4 fL
  Mono: 2.8%
  Neu: 16.4%
  Plat: 131.5 x10_4/uL
  RBC: 618.2 x10_4/ul
  Ret: 5.1%
  WBC: 85.9 x10_2/uL
  ALP: 765 IU/L
  ALT: 31.2 IU/L
  AST: 64.8 IU/L
  BUN: 14.6 mg/dL
  CRE: 0.4 mg/dL
  DBIL: 0.07 mg/dL
  GLC: 201.8 mg/dL
  IP: 7.9 mg/dL
  K: 3.7 meq/L
  LDH: 197.2 IU/L
  Na: 141.8 meq/L
  PL: 136 mg/dL
  RALB: 3.4 g/dL
  TBIL: 0.1 mg/dL
  TC: 67.2 mg/dL
  TG: 64.8 mg/dL
  TP: 5.5 g/dL
  gamma-GTP: 1.2 IU/L
[7]
  TERMINAL_BW: 257.7 g
  APTT: 19.5 s
  Bas: 0%
  Eos: 0.8%
  Fbg: 209.8 mg/dL
  Ht: 39.4%
  Lym: 78.8%
  MCH: 21.1 pg
  MCHC: 34.2%
  MCV: 61.7 fL
  Mono: 4.2%
  Plat: 114.2 x10_4/uL
  RBC: 639.6 x10_4/ul
  Ret: 6%
  WBC: 111.1 x10_2/uL
  ALP: 901.6 IU/L
  ALT: 35.2 IU/L
  AST: 65.6 IU/L
  BUN: 16.2 mg/dL
  CRE: 0.4 mg/dL
  DBIL: 0.082 mg/dL
  GLC: 217.6 mg/dL
  IP: 7.5 mg/dL
  K: 3.9 meq/L
  LDH: 204.2 IU/L
  Na: 139.4 meq/L
  PL: 132.8 mg/dL
  RALB: 3.3 g/dL
  TBIL: 0.1 mg/dL
  TC: 62 mg/dL
  TG: 94.4 mg/dL
  TP: 5.6 g/dL
  gamma-GTP: 1.4 IU/L
[8]
  TERMINAL_BW: 310.7 g
  APTT: 18.5 s
  Bas: 0%
  Eos: 0.8%
  Fbg: 226.2 mg/dL
  Ht: 41.6%
  Lym: 84%
  MCH: 20.2 pg
  MCHC: 34.6%
  MCV: 58.4 fL
  Mono: 3.6%
  Neu: 10.6%
  Plat: 116.8 x10_4/uL
  RBC: 712.6 x10_4/ul
  Ret: 4.7%
  WBC: 84.9 x10_2/uL
  ALP: 786 IU/L
  ALT: 33 IU/L
  AST: 64.6 IU/L
  BUN: 17 mg/dL
  CRE: 0.4 mg/dL
  DBIL: 0.086 mg/dL
  GLC: 207.6 mg/dL
  IP: 6.9 mg/dL
  K: 3.7 meq/L
  LDH: 189.2 IU/L
  Na: 140.2 meq/L
  PL: 140.4 mg/dL
  RALB: 3.4 g/dL
  TBIL: 0.1 mg/dL
  TC: 65 mg/dL
  TG: 101 mg/dL
  TP: 5.7 g/dL
  gamma-GTP: 1.6 IU/L
[9]
  TERMINAL_BW: 375.7 g
  APTT: 20.4 s
  Bas: 0%
  Eos: 1%
  Fbg: 201 mg/dL
  Ht: 41.7%
  Lym: 85%
  MCH: 19.1 pg
  MCHC: 34.7%
  MCV: 55.1 fL
  Mono: 3%
  Neu: 10%
  Plat: 101.4 x10_4/uL
  RBC: 757 x10_4/ul
  Ret: 2.4%
  WBC: 78.5 x10_2/uL
  ALP: 583.2 IU/L
  ALT: 29.2 IU/L
  AST: 62.8 IU/L
  BUN: 17.8 mg/dL
  CRE: 0.5 mg/dL
  DBIL: 0.078 mg/dL
  GLC: 198.8 mg/dL
  IP: 5.9 mg/dL
  K: 3.9 meq/L
  LDH: 209.8 IU/L
  Na: 140.4 meq/L
  PL: 126.6 mg/dL
  RALB: 3.4 g/dL
  TBIL: 0.1 mg/dL
  TC: 55.4 mg/dL
  TG: 98.4 mg/dL
  TP: 5.7 g/dL
  gamma-GTP: 1 IU/L
